How the values were obtained:
Conditions in all cases: 72 h
[1] = tested on: HEL
How it was run: (§1)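 Fifteen myeloid leukaemia cell lines were seeded in RPMI 1640 at densities titrated to the linear growth range and placed in 384-well plates with acoustically pre-printed compounds at five tenfold doses from 1 to 10,000 nM, in duplicate. After 72 h at 37 °C with 5% CO2, luminescent ATP viability was normalised to vehicle and to a positive control at 10 µM, and curves were fitted with a four-parameter log-logistic model. The IC50 was obtained from these fits.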

[2] = tested on: NOMO-1
How it was run: as §1

[3] = tested on: MV4-11
How it was run: as §1

[4] = tested on: ML-2
How it was run: as §1

[5] = tested on: SHI-1
How it was run: as §1

[6] = tested on: LAMA-84
How it was run: as §1

[7] = tested on: K-562
How it was run: as §1

[8] = tested on: KG-1
How it was run: as §1

[9] = tested on: KCL-22
How it was run: as §1

[10] = tested on: KU-812
How it was run: as §1

[11] = tested on: MOLM-13
How it was run: as §1

[12] = tested on: Mono-Mac-6
How it was run: as §1

[13] = tested on: THP-1
How it was run: as §1

[14] = tested on: HL-60
How it was run: as §1

[15] = tested on: BV-173
How it was run: as §1

[16] = tested on: HL-60; test: area under dose-response curve (viability, 1 nM-10 uM) (fraction (0-1)); higher = more sensitive
How it was run: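 In 384-well plates, the full library was rescreened in duplicate on HL-60 cells in RPMI 1640 with 10% FBS, at 1–10,000 nM in five tenfold concentrations, for 72 h at 37 °C, 5% CO2. Each run also held DMSO or 100 nM of one of three metabolic inhibitors. Viability was measured by CellTiter-Glo and normalised to DMSO wells and to wells with proteasome inhibitor, present at 10 μM. Any area under the curve comes from four-parameter log-logistic fitting with drc and PharmacoGx.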

[17] = tested on: HEL; test: cell viability (% survival relative to DMSO control, bortezomib = 0%); higher = less cytotoxic
How it was run: (§2)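 Seeding density for each of the 10 AML and 5 CML cell lines was titrated to the linear growth range. Cells went into 384-well plates pre-printed in duplicate with compounds at 1, 10, 100, 1000 or 10000 nM and were held for 72 h at 37 °C with 5% CO2. CellTiter-Glo luminescence then provided the readout. Percent survival is expressed relative to vehicle at 100% and a 10 µM positive control at 0%, averaged over duplicates.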

[18] = tested on: NOMO-1; test: as above
How it was run: as §2

[19] = tested on: MV4-11; test: as above
How it was run: as §2

[20] = tested on: ML-2; test: as above
How it was run: as §2

[21] = tested on: SHI-1; test: as above
How it was run: as §2

[22] = tested on: K-562; test: as above
How it was run: as §2

[23] = tested on: KG-1; test: as above
How it was run: as §2

[24] = tested on: KCL-22; test: as above
How it was run: as §2

[25] = tested on: KU-812; test: as above
How it was run: as §2

[26] = tested on: MOLM-13; test: as above
How it was run: as §2

[27] = tested on: Mono-Mac-6; test: as above
How it was run: as §2

[28] = tested on: THP-1; test: as above
How it was run: as §2

[29] = tested on: HL-60; test: as above
How it was run: as §2

[30] = tested on: BV-173; test: as above
How it was run: as §2

CC1(C)[C@@H](O[C@H]2O[C@H](C(=O)O)[C@@H](O)[C@H](O)[C@H]2O[C@@H]2O[C@H](C(=O)O)[C@@H](O)[C@H](O)[C@H]2O)CC[C@]2(C)[C@H]3C(=O)C=C4[C@@H]5C[C@@](C)(C(=O)O)CC[C@]5(C)CC[C@@]4(C)[C@]3(C)CC[C@@H]12 [Glycyrrhizin]
Conditions	IC50 (cell viability) [µM]
[1]	> 10
[2]	> 10
[3]	> 10
[4]	> 10
[5]	> 10
[6]	> 10
[7]	> 10
[8]	> 10
[9]	> 10
[10]	> 10
[11]	> 10
[12]	> 10
[13]	> 10
[14]	> 10
[15]	> 10

Conditions	area under dose-response curve, co-treatment: AZD3965 100 nM	area under dose-response curve, co-treatment: DMSO vehicle	area under dose-response curve, co-treatment: GSK2194069 100 nM	area under dose-response curve, co-treatment: pictilisib 100 nM	cell viability, 1 nM [%]	cell viability, 10 nM [%]	cell viability, 100 nM [%]	cell viability, 1000 nM [%]	cell viability, 10000 nM [%]
[16]	< 0.0301	< 0.0301	< 0.0301	< 0.0301	–	–	–	–	–
[17]	–	–	–	–	99.8	108	107	109	84.8
[18]	–	–	–	–	97.5	107	103	100	93.4
[19]	–	–	–	–	89	108	108	85.3	102
[20]	–	–	–	–	101	110	104	114	99.5
[21]	–	–	–	–	95.5	100	114	105	97.2
[22]	–	–	–	–	88.7	87.5	102	91.6	83.4
[23]	–	–	–	–	90	108	114	101	106
[24]	–	–	–	–	89.9	95.3	105	99.3	97.2
[25]	–	–	–	–	87.4	92	107	99.6	84.3
[26]	–	–	–	–	70.1	91.4	133	79.3	92.3
[27]	–	–	–	–	94.1	103	104	94.8	89
[28]	–	–	–	–	92.1	103	95.8	98.4	96.2
[29]	–	–	–	–	74.5	101	113	103	98.7
[30]	–	–	–	–	88.9	109	117	95.4	83.4

NC(=O)c1cccc(-c2cccc(OC(=O)NC3CCCCC3)c2)c1 [URB-597]
Conditions	IC50 (cell viability) [µM]
[1]	> 10
[2]	> 10
[3]	> 10
[4]	> 10
[5]	> 10
[6]	> 10
[7]	> 10
[8]	> 10
[9]	> 10
[10]	> 10
[11]	> 10
[12]	> 10
[13]	> 10
[14]	> 10
[15]	> 10

cell viability [%]
Conditions	1 nM	10 nM	100 nM	1000 nM	10000 nM
[17]	102	104	103	110	95.2
[18]	101	103	105	96.1	110
[19]	96.4	96.5	109	99.6	89.5
[20]	92.2	94.2	105	105	114
[21]	93.9	86.1	89.4	100	110
[22]	102	98	100	90.6	100
[23]	102	103	102	92.8	101
[24]	105	106	104	98.2	109
[25]	92.1	99.1	103	103	87.2
[26]	99.9	93.7	105	93.8	117
[27]	102	99.6	97.2	117	123
[28]	98.5	93.8	105	99.1	102
[29]	98.7	89.2	114	94.3	103
[30]	91	104	105	104	115

O=C(NNc1ccccc1)c1ccncc1 [PluriSln 1]
Conditions	IC50 (cell viability) [µM]
[1]	> 10
[2]	> 10
[3]	> 10
[4]	> 10
[5]	> 10
[6]	8.48
[7]	9.7
[8]	> 10
[9]	8.52
[10]	> 10
[11]	5.72
[12]	> 10
[13]	> 10
[14]	5.48
[15]	> 10

Conditions	area under dose-response curve, co-treatment: AZD3965 100 nM	area under dose-response curve, co-treatment: DMSO vehicle	area under dose-response curve, co-treatment: GSK2194069 100 nM	area under dose-response curve, co-treatment: pictilisib 100 nM	cell viability, 1 nM [%]	cell viability, 10 nM [%]	cell viability, 100 nM [%]	cell viability, 1000 nM [%]	cell viability, 10000 nM [%]
[16]	0.0541	0.0377	< 0.0301	< 0.0301	–	–	–	–	–
[17]	–	–	–	–	95.1	99.2	96.8	105	78.1
[18]	–	–	–	–	91	101	91.8	106	89.6
[19]	–	–	–	–	92.1	99.2	99.3	109	89.4
[20]	–	–	–	–	93.3	97.6	92.8	103	81
[21]	–	–	–	–	91.5	95.5	93	105	92.6
[22]	–	–	–	–	93.4	85.7	90.4	86.4	52
[23]	–	–	–	–	88.5	104	102	98.4	62.8
[24]	–	–	–	–	89.9	102	99.7	110	41.5
[25]	–	–	–	–	93.3	93.8	93.2	102	92.5
[26]	–	–	–	–	80.5	92	96.7	87.1	25.4
[27]	–	–	–	–	106	103	104	110	87.2
[28]	–	–	–	–	97.2	97.1	100	108	95.4
[29]	–	–	–	–	102	94.1	90.5	109	20.7
[30]	–	–	–	–	86	93.5	97	104	82.6

— the supplement of paper PMC8671470
